system: pERK1/2(THR202/TYR204) level in SW620 cell line (KRAS G12V); experiment: KRAS G12V pERK assay (HTRF) in SW620 cell line; type: cell-based; settings: Homo sapiens, SW-620, 2 h, SW620 cells, 2 hrs compound treatment
Method: SW620 cell line was used in this study. Cells were maintained in RPMI 1640 supplemented with 10% fetal bovine serum (Thermo Fisher), 50 units/mL penicillin and streptomycin (Thermo Fisher) and kept at 37° C. in a humidified atmosphere of 5% CO2 in air. Cells were reinstated from frozen stocks that were laid down within 30 passages from the original cells purchased. 40000 cells per well were seeded into a 96-well plate and incubated overnight. Cells were treated with a 10-point dilution series. The final compound concentration is from 0 to 10 μM. After 2 hrs compound treatment, cells were lysed, and the pERK1/2(THR202/TYR204) level in the cell lysates was detected by HTRF kit (Cisbio). In brief, a total of 16 μL of cell lysate from each well of a 96-well plate was transferred to a 384-well white assay plate. Lysate from each well was incubated with 2 μL of Eu3+-cryptate (donor) labeled anti-phospho-ERK1/2 and 2 μL of D2 (acceptor) labeled anti-phospho-ERK1/2 antibodies (Cisbio) overnight in dark at room temperature. When donor and acceptor are in close proximity, excitation of the donor with laser triggers a Fluorescence Resonance Energy Transfer (FRET) towards the acceptor, which in turn fluoresces at 655 nm wavelength. FRET signals were measured using a PHERAstar FSX reader (BMG Labtech). IC50 determination was performed by fitting the curve of percent inhibition versus the log of the inhibitor concentration using Dotmatics.

Q: How did the IC50 turn out when `C#Cc1c(F)ccc2cc(O)cc(-c3nc4c5c(nc(OC[C@@]67CCCN6C[C@H](F)C7)nc5c3F)N3C[C@@H](O)CC[C@H]3CO4)c12` [Example 35, (5aS,8S)-2-(8-ethynyl-7-fluoro-3-hydroxynaphthalen-1-yl)-1-fluoro-11-(((2R,7aS)-2-fluorotetrahydro-1H-pyrrolizin-7a(5H)-yl)methoxy)-5,5a,6,7,8,9-hexahydro-4-oxa-3,9a,10,12-tetraazabenzo[4,5]cyclohepta[1,2,3-de]naphthalen-8-ol] was run?
A: 0.015 µM

Q: For `N#Cc1c(N)sc2c(F)ccc(-c3cc4c5c(nc(OC[C@@]67CCCN6C[C@H](F)C7)nc5c3F)N3CCC[C@@H]3CCO4)c12` [Example 5, 2-amino-7-fluoro-4-((R)-8-fluoro-6-(((2R,7aS)-2-fluorotetrahydro-1H-pyrrolizin-7a(5H)-yl)methoxy)-1,2,3,12,13,13a-hexahydropyrrolo[1′,2′:5,6][1,5]oxazocino[4,3,2-de]quinazolin-9-yl)benzo[b]thiophene-3-carbonitrile], which IC50 is on record?
A: 0.668 µM

Q: How did the IC50 turn out when `C[C@@H]1C[C@H]2COc3c(Cl)c(-c4ccc(F)c5sc(N)c(C#N)c45)c(F)c4nc(OC[C@@]56CCCN5C[C@H](F)C6)nc(c34)N2C1` [Example 28, 2-amino-4-((2R,12aS)-10-chloro-8-fluoro-6-(((2R,7aS)-2-fluorotetrahydro-1H-pyrrolizin-7a(5H)-yl)methoxy)-2-methyl-2,3,12,12a-tetrahydro-1H-pyrrolo[2′,1′:3,4][1,4]oxazepino[5,6,7-de]quinazolin-9-yl)-7-fluorobenzo[b]thiophene-3-carbonitrile] was run?
A: 0.074 µM

Q: `N#Cc1c(N)sc2c(F)ccc(-c3c(Cl)c4c5c(nc(OC[C@@]67CCCN6C[C@H](F)C7)nc5c3F)N3CC[C@@H](O)C[C@H]3CO4)c12` [Example 31, 2-Amino-4-((8aS,10R)-6-chloro-4-fluoro-2-(((2R,7aS)-2-fluorotetrahydro-1H-pyrrolizin-7a(5H)-yl)methoxy)-10-hydroxy-8,8a,9,10,11,12-hexahydropyrido[2′,1′:3,4][1,4]oxazepino[5,6,7-de]quinazolin-5-yl)-7-fluorobenzo[b]thiophene-3-carbonitrile] was tested. Which IC50 did it give?
A: 0.056 µM

Q: For `Nc1cc(Cl)c(C(F)(F)F)c(-c2nc3c4c(nc(OC[C@@]56CCCN5C[C@H](F)C6)nc4c2F)N2CCC(F)C2CO3)c1` (stereo partly drawn) [Example 17, 3-chloro-5-(1,7-difluoro-5-(((2R,7aS)-2-fluorotetrahydro-1H-pyrrolizin-7a(5H)-yl)methoxy)-2,3,11,11a-tetrahydro-1H-10-oxa-3a,4,6,9-tetraazanaphtho[1,8-ef]azulen-8-yl)-4-(trifluoromethyl)aniline], which IC50 is on record?
A: 0.509 µM

Q: With `N#Cc1c(N)sc2c(F)ccc(-c3c(Cl)c4c5c(nc(OC[C@@]67CCCN6C[C@H](F)C7)nc5c3F)N3CCC(C#N)C[C@H]3CO4)c12` (stereo partly drawn) [Example 30, (8aS)-5-(2-amino-3-cyano-7-fluorobenzo[b]thiophen-4-yl)-6-chloro-4-fluoro-2-(((2R,7aS)-2-fluorotetrahydro-1H-pyrrolizin-7a(5H)-yl)methoxy)-8,8a,9,10,11,12-hexahydropyrido[2′,1′:3,4][1,4]oxazepino[5,6,7-de]quinazoline-10-carbonitrile] as the compound, how does the IC50 read?
A: 0.051 µM

Q: With `Nc1cc(Cl)c(C(F)(F)F)c(-c2nc3c4c(nc(OC[C@@]56CCCN5C[C@H](F)C6)nc4c2F)N2CC[C@@H]2CCO3)c1` [Example 23, 3-chloro-5-((R)-6-fluoro-4-(((2R,7aS)-2-fluorotetrahydro-1H-pyrrolizin-7a(5H)-yl)methoxy)-1,10,11,11a-tetrahydro-2H-9-oxa-2a,3,5,8-tetraazacyclobuta[4,5]cycloocta[1,2,3-de]naphthalen-7-yl)-4-(trifluoromethyl)aniline] as the compound, how does the IC50 read?
A: 0.073 µM

Q: How did the IC50 turn out when `C#Cc1c(F)ccc2cc(O)cc(-c3nc4c5c(nc(OC[C@@]67CCCN6C[C@H](F)C7)nc5c3F)N3CCC[C@H]3CO4)c12` [Example 10, 5-ethynyl-6-fluoro-4-((S)-7-fluoro-5-(((2R,7aS)-2-fluorotetrahydro-1H-pyrrolizin-7a(5H)-yl)methoxy)-2,3,11,11a-tetrahydro-1H-10-oxa-3a,4,6,9-tetraazanaphtho[1,8-ef]azulen-8-yl)naphthalen-2-ol] was run?
A: 0.043 µM

Q: `Nc1cc(Cl)c(C(F)(F)F)c(-c2nc3c4c(nc(OC[C@@]56CCCN5C[C@H](F)C6)nc4c2F)N2CCCC[C@H]2CO3)c1` [Example 15, 3-chloro-5-((S)-1-fluoro-11-(((2R,7aS)-2-fluorotetrahydro-1H-pyrrolizin-7a(5H)-yl)methoxy)-5,5a,6,7,8,9-hexahydro-4-oxa-3,9a,10,12-tetraazabenzo[4,5]cyclohepta[1,2,3-de]naphthalen-2-yl)-4-(trifluoromethyl)aniline] was tested. Which IC50 did it give?
A: 0.187 µM

Q: With `Nc1cc(Cl)c(C(F)(F)F)c(-c2nc3c4c(nc(OC[C@@]56CCCN5C[C@H](F)C6)nc4c2F)N2CCC[C@@H]2CO3)c1` [Example 13, 3-chloro-5-((R)-7-fluoro-5-(((2R,7aS)-2-fluorotetrahydro-1H-pyrrolizin-7a(5H)-yl)methoxy)-2,3,11,11a-tetrahydro-1H-10-oxa-3a,4,6,9-tetraazanaphtho[1,8-ef]azulen-8-yl)-4-(trifluoromethyl)aniline] as the compound, how does the IC50 read?
A: 0.648 µM

Q: With `Nc1cc(Cl)c(C(F)(F)F)c(-c2nc3c4c(nc(OC[C@@]56CCCN5C[C@H](F)C6)nc4c2F)N2CCC[C@@H]2CCO3)c1` [Example 11, 3-chloro-5-((R)-7-fluoro-5-(((2R,7aS)-2-fluorotetrahydro-1H-pyrrolizin-7a(5H)-yl)methoxy)-1,2,3,11,12,12a-hexahydro-10-oxa-3a,4,6,9-tetraazacyclopenta[4,5]cycloocta[1,2,3-de]naphthalen-8-yl)-4-(trifluoromethyl)aniline] as the compound, how does the IC50 read?
A: 0.066 µM

Q: `C#Cc1c(F)ccc2cc(O)cc(-c3nc4c5c(nc(OC[C@@]67CCCN6C[C@H](F)C7)nc5c3F)N3C[C@H](F)C[C@H]3CO4)c12` [Example 19, 4-((2R,11aS)-2,7-difluoro-5-(((2R,7aS)-2-fluorotetrahydro-1H-pyrrolizin-7a(5H)-yl)methoxy)-2,3,11,11a-tetrahydro-1H-10-oxa-3a,4,6,9-tetraazanaphtho[1,8-ef]azulen-8-yl)-5-ethynyl-6-fluoronaphthalen-2-ol] was tested. Which IC50 did it give?
A: 0.112 µM

Q: For `Nc1cc(Cl)c(C(F)(F)F)c(-c2nc3c4c(nc(OC[C@@]56CCCN5C[C@H](F)C6)nc4c2F)N2CCCCCC2CO3)c1` (stereo partly drawn) [Example 25, 3-chloro-5-(1-fluoro-12-(((2R,7aS)-2-fluorotetrahydro-1H-pyrrolizin-7a(5H)-yl)methoxy)-5a,6,7,8,9,10-hexahydro-5H-4-oxa-3,10a,11,13-tetraazanaphtho[1,8-ab]heptalen-2-yl)-4-(trifluoromethyl)aniline], which IC50 is on record?
A: 0.053 µM

Q: For `C#Cc1c(F)ccc2cc(O)cc(-c3nc4c5c(nc(OC[C@@]67CCCN6C[C@H](F)C7)nc5c3F)N3CCCC[C@H]3[C@H](C)O4)c12` [Example 34, 5-ethynyl-6-fluoro-4-((5S,5aS)-1-fluoro-11-(((2R,7aS)-2-fluorotetrahydro-1H-pyrrolizin-7a(5H)-yl)methoxy)-5-methyl-5,5a,6,7,8,9-hexahydro-4-oxa-3,9a,10,12-tetraazabenzo[4,5]cyclohepta[1,2,3-de]naphthalen-2-yl)naphthalen-2-ol], which IC50 is on record?
A: 0.01 µM

Q: With `C#Cc1c(F)ccc2cc(O)cc(-c3nc4c5c(nc(OC[C@@]67CCCN6C[C@H](F)C7)nc5c3F)N3CCCCCC3CO4)c12` (stereo partly drawn) [Example 26, 5-ethynyl-6-fluoro-4-(1-fluoro-12-(((2R,7aS)-2-fluorotetrahydro-1H-pyrrolizin-7a(5H)-yl)methoxy)-5a,6,7,8,9,10-hexahydro-5H-4-oxa-3,10a,11,13-tetraazanaphtho[1,8-ab]heptalen-2-yl)naphthalen-2-ol] as the compound, how does the IC50 read?
A: 0.0093 µM

Q: How did the IC50 turn out when `C#Cc1c(F)ccc2cc(O)cc(-c3cc4c5c(nc(OC[C@@]67CCCN6C[C@H](F)C7)nc5c3F)N3CC(F)(F)C[C@H]3CO4)c12` [Example 4, 5-ethynyl-6-fluoro-4-((S)-2,2,8-trifluoro-6-(((2R,7aS)-2-fluorotetrahydro-1H-pyrrolizin-7a(5H)-yl)methoxy)-2,3,12,12a-tetrahydro-1H-pyrrolo[2′,1′:3,4][1,4]oxazepino[5,6,7-de]quinazolin-9-yl)naphthalen-2-ol] was run?
A: 0.658 µM

Q: How did the IC50 turn out when `Nc1cc(Cl)c(C(F)(F)F)c(-c2nc3c4c(nc(OC[C@@]56CCCN5C[C@H](F)C6)nc4c2F)N2CC[C@H]2CCO3)c1` [Example 22, 3-chloro-5-((S)-6-fluoro-4-(((2R,7aS)-2-fluorotetrahydro-1H-pyrrolizin-7a(5H)-yl)methoxy)-1,10,11,11a-tetrahydro-2H-9-oxa-2a,3,5,8-tetraazacyclobuta[4,5]cycloocta[1,2,3-de]naphthalen-7-yl)-4-(trifluoromethyl)aniline] was run?
A: 0.466 µM

same assay, conditions: SW620 cells, 2 hrs compound treatment

Q: For `C#Cc1c(F)ccc2cc(O)cc(-c3nc4c5c(nc(OCC67CCCN6CC(F)C7)nc5c3F)N3CCC3CO4)c12` (single isomer, unassigned) [Example 18], which IC50 is on record?
A: 0.326 µM

Q: For “3-chloro-5-(1-fluoro-12-(((2R,7aS)-2-fluorotetrahydro-1H-pyrrolizin-7a(5H)-yl)methoxy)-6,6a,7,8,9,10-hexahydro-5H-4-oxa-3,10a,11,13-tetraazabenzo[4,5]cycloocta[1,2,3-de]naphthalen-2-yl)-4-(trifluoromethyl)aniline [Example 8]”, which IC50 is on record?
A: 0.29 µM
